In ChEMBL document CHEMBL1777786, “Synthesis of cholestane saponins as mimics of OSW-1 and their cytotoxic activities” (Bioorg Med Chem Lett, 2011):

What was measured:
Type in all cases: functional, cell-based
BGC-823 = assay: Cytotoxicity against human BGC823 cells after 72 hrs by MTT assay; details: BGC-823, 72 h
A549 = assay: Cytotoxicity against human A549 cells after 72 hrs by MTT assay; details: A549, 72 h
A2780 = assay: Cytotoxicity against human A2780 cells after 72 hrs by MTT assay; details: A2780, 72 h
Bel-7402 = assay: Cytotoxicity against human Bel7402 cells after 72 hrs by MTT assay; details: Bel-7402, 72 h
HCT-8 = assay: Cytotoxicity against human HCT8 cells after 72 hrs by MTT assay; details: HCT-8, 72 h

SMILES	IC50 (BGC-823) [nM]	IC50 (A549) [nM]	IC50 (A2780) [nM]	IC50 (Bel-7402) [nM]	IC50 (HCT-8) [nM]
COc1ccc(C(=O)O[C@H]2[C@H](O[C@@H]3[C@@H](OC(C)=O)[C@H](O[C@H]4C[C@H]5[C@@H]6CC=C7C[C@@H](O)CC[C@]7(C)[C@H]6CC[C@]5(C)[C@H]4[C@H](C)CCC[C@@H](C)CO)OC[C@@H]3O)OC[C@@H](O)[C@@H]2O)cc1	2	9.3	6	23	70
COc1ccc(C(=O)O[C@H]2[C@H](O[C@@H]3[C@@H](OC(C)=O)[C@H](O[C@H]4C=C5C[C@@H](O)CC[C@]5(C)[C@H]5CC[C@]6(C)[C@@H]([C@H](C)CCC[C@@H](C)CO)CC[C@H]6[C@H]45)OC[C@@H]3O)OC[C@@H](O)[C@@H]2O)cc1	> 10000	> 10000	> 10000	> 10000	> 10000
COc1ccc(C(=O)O[C@H]2[C@H](O[C@@H]3[C@@H](OC(C)=O)[C@H](O[C@H]4C=C5C[C@@H](O)CC[C@]5(C)[C@H]5CC[C@]6(C)[C@@H]([C@H](C)CCC[C@@H](C)CO)[C@@H](O)C[C@H]6[C@H]45)OC[C@@H]3O)OC[C@@H](O)[C@@H]2O)cc1	78	87	1900	50	75
COc1ccc(C(=O)O[C@H]2[C@H](O[C@H]3CO[C@@H](O[C@H]4C[C@H]5[C@@H]6CC=C7C[C@@H](O)CC[C@]7(C)[C@H]6CC[C@]5(C)[C@H]4[C@H](C)CCC[C@@H](C)CO)[C@H](OC(C)=O)[C@H]3O)OC[C@@H](O)[C@@H]2O)cc1	> 10000	> 10000	> 10000	> 10000	> 10000
COc1ccc(C(=O)O[C@H]2[C@H](O[C@H]3CO[C@@H](O[C@H]4C=C5C[C@@H](O)CC[C@]5(C)[C@H]5CC[C@]6(C)[C@@H]([C@H](C)CCC[C@@H](C)CO)CC[C@H]6[C@H]45)[C@H](OC(C)=O)[C@H]3O)OC[C@@H](O)[C@@H]2O)cc1	> 10000	> 10000	> 10000	> 10000	> 10000
COc1ccc(C(=O)O[C@H]2[C@H](O[C@H]3CO[C@@H](O[C@H]4C=C5C[C@@H](O)CC[C@]5(C)[C@H]5CC[C@]6(C)[C@@H]([C@H](C)CCC[C@@H](C)CO)[C@@H](O)C[C@H]6[C@H]45)[C@H](OC(C)=O)[C@H]3O)OC[C@@H](O)[C@@H]2O)cc1	> 10000	> 10000	> 10000	> 10000	> 10000
CC(=O)O[C@H]1C(=O)[C@@]2(C)[C@H]([C@H](OC(=O)c3ccccc3)[C@]3(O)C[C@H](OC(=O)[C@H](O)[C@@H](NC(=O)c4ccccc4)c4ccccc4)C(C)=C1C3(C)C)[C@]1(OC(C)=O)CO[C@@H]1C[C@@H]2O [PACLITAXEL]	< 1	–	< 1	6	–
